# According to ChEMBL document CHEMBL5678818, “Discovery of potent SOS1 inhibitors that block RAS activation via disruption of the RAS-SOS1 interaction” (Proc Natl Acad Sci U S A, 2019):
# Columns and labels:
# [1] = tested on: Tyrosine-protein kinase ABL1 (Homo sapiens), P00519 [Q252H]; test: Inhibition of phosphorylated ABL1 Q252H mutant (unknown origin) assessed as residual activity at 100 nM by KINOMEscan analysis relative to control
# [2] = biological target: T1, Activin receptor type-1B (Homo sapiens) (UniProt P36896); test: Inhibition of ACVR1B (unknown origin) assessed as residual activity at 100 nM by KINOMEscan analysis relative to control
# T1 sequence (whole entry): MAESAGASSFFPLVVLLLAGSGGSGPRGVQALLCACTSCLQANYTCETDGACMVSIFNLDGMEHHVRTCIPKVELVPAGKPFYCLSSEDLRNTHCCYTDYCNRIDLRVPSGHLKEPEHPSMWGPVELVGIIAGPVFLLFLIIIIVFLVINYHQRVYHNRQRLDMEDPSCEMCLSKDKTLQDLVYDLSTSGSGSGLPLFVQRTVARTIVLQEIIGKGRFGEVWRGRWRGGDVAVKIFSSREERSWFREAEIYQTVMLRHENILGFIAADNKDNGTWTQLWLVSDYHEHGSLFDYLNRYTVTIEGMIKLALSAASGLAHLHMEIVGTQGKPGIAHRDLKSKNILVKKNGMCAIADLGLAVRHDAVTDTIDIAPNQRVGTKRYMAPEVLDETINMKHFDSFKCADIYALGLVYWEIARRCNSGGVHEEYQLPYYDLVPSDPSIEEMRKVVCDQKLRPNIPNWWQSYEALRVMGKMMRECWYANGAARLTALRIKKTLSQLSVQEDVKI
# [3] = biological target: Receptor tyrosine-protein kinase erbB-3 (Homo sapiens) (UniProt P21860); test: Inhibition of ERBB3 (unknown origin) assessed as residual activity at 100 nM by KINOMEscan analysis relative to control
# [4] = biological target: Receptor-type tyrosine-protein kinase FLT3 (Homo sapiens) (UniProt P36888); test: Inhibition of FLT3 (unknown origin) assessed as residual activity at 100 nM by KINOMEscan analysis relative to control
# [5] = biological target: Receptor-type tyrosine-protein kinase FLT3 (Homo sapiens) (UniProt P36888); test: Inhibition of autoinhibited FLT3 (unknown origin) assessed as residual activity at 100 nM by KINOMEscan analysis relative to control
# [6] = biological target: Insulin receptor-related protein (Homo sapiens) (UniProt P14616); test: Inhibition of INSRR (unknown origin) assessed as residual activity at 100 nM by KINOMEscan analysis relative to control
# [7] = biological target: Leucine-rich repeat serine/threonine-protein kinase 2 (Homo sapiens) (UniProt Q5S007); test: Inhibition of LRRK2 (unknown origin) assessed as residual activity at 100 nM by KINOMEscan analysis relative to control
# [8] = biological target: T2, Dual specificity mitogen-activated protein kinase kinase 4 (Homo sapiens) (UniProt P45985); test: Inhibition of MEK4 (unknown origin) assessed as residual activity at 100 nM by KINOMEscan analysis relative to control
# T2 sequence (whole entry): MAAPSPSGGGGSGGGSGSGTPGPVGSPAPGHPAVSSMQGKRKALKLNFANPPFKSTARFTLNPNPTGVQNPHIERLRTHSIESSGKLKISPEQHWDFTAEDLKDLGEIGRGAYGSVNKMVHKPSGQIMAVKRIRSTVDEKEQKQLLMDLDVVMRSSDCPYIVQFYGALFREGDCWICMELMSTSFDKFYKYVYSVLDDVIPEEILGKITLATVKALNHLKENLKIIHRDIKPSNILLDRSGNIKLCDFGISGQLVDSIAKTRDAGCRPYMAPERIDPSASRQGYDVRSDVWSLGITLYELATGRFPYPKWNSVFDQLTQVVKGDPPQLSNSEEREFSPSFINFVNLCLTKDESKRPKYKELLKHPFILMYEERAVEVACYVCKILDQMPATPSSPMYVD
# [9] = biological target: MAP kinase-interacting serine/threonine-protein kinase 1 (Homo sapiens) (UniProt Q9BUB5); test: Inhibition of MKNK1 (unknown origin) assessed as residual activity at 100 nM by KINOMEscan analysis relative to control
# [10] = biological target: Myosin light chain kinase 2, skeletal/cardiac muscle (Homo sapiens) (UniProt Q9H1R3); test: Inhibition of MYLK2 (unknown origin) assessed as residual activity at 100 nM by KINOMEscan analysis relative to control
# [11] = biological target: Serine/threonine-protein kinase PAK 4 (Homo sapiens) (UniProt O96013); test: Inhibition of PAK4 (unknown origin) assessed as residual activity at 100 nM by KINOMEscan analysis relative to control
# [12] = biological target: T3, Serine/threonine-protein kinase Sgk3 (Homo sapiens) (UniProt Q96BR1); test: Inhibition of SGK3 (unknown origin) assessed as residual activity at 100 nM by KINOMEscan analysis relative to control
# T3 sequence (whole entry): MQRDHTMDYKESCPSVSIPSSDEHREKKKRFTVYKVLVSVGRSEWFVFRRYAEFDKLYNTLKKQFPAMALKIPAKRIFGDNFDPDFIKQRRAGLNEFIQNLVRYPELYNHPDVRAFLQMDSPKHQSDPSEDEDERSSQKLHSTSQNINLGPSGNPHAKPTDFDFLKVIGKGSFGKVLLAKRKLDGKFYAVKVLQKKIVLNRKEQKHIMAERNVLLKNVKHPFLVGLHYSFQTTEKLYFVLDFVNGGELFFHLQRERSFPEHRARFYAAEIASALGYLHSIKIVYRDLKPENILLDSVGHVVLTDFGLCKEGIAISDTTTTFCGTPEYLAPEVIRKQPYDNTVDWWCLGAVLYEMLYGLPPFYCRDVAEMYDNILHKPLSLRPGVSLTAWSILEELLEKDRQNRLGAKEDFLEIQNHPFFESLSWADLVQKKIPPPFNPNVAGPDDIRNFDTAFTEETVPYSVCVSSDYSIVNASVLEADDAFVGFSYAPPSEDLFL
# [13] = biological target: Serine/threonine-protein kinase SIK2 (Homo sapiens) (UniProt Q9H0K1); test: Inhibition of SIK2 (unknown origin) assessed as residual activity at 100 nM by KINOMEscan analysis relative to control
# [14] = biological target: Activated CDC42 kinase 1 (Homo sapiens) (UniProt Q07912); test: Inhibition of TNK2 (unknown origin) assessed as residual activity at 100 nM by KINOMEscan analysis relative to control
# Receptor-type tyrosine-protein kinase FLT3 (Homo sapiens), sequence (P36888 whole entry): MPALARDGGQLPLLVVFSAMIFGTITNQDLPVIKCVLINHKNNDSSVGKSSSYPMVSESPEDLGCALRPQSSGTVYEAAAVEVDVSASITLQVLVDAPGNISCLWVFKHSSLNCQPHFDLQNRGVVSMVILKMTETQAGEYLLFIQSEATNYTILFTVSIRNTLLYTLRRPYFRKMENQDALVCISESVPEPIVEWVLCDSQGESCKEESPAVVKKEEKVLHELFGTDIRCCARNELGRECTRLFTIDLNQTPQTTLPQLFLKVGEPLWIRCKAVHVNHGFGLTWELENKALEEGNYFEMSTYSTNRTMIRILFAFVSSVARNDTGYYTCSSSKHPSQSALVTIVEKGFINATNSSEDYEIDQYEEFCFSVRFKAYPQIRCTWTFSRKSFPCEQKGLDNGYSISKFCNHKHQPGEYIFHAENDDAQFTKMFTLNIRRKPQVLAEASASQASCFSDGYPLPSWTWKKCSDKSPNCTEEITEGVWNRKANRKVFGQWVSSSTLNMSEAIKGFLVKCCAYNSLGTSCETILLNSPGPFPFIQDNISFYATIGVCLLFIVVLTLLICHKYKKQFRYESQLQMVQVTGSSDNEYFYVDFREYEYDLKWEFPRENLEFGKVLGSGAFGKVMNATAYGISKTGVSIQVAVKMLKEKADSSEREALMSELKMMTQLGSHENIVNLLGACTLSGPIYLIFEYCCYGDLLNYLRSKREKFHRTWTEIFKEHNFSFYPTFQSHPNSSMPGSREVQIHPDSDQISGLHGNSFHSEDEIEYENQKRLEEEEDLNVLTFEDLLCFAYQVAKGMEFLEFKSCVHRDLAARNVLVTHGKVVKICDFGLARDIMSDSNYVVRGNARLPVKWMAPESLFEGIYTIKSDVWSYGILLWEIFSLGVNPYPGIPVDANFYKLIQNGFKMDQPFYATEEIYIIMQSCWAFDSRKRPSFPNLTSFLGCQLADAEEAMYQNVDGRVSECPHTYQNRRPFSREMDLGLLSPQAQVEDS
# Serine/threonine-protein kinase SIK2 (Homo sapiens), sequence (Q9H0K1 whole entry, looked up): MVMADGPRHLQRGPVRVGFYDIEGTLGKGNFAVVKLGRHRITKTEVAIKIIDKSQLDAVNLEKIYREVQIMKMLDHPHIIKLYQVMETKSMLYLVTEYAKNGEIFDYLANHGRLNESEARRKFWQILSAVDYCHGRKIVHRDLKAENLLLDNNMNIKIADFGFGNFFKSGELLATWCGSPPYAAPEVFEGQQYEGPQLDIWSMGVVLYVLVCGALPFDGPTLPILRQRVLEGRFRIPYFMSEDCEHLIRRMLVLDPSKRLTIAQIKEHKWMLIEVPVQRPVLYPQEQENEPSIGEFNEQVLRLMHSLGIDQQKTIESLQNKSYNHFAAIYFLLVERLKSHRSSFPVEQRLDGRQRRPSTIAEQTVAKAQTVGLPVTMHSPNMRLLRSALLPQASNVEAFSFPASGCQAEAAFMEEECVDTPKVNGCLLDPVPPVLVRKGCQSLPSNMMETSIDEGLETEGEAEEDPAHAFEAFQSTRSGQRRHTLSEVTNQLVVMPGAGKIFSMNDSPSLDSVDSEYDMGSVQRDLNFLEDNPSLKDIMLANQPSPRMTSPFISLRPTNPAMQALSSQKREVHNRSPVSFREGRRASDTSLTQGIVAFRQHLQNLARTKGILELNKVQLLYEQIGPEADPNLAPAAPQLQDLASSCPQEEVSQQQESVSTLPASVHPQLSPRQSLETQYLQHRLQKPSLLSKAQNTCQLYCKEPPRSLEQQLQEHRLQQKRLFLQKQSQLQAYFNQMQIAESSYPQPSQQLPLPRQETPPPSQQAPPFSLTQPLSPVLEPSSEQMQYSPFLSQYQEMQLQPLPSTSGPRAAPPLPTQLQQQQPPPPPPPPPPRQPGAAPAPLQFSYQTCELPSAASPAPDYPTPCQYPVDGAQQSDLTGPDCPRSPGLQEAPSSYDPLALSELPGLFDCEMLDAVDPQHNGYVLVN
# Receptor tyrosine-protein kinase erbB-3 (Homo sapiens), sequence (P21860 whole entry): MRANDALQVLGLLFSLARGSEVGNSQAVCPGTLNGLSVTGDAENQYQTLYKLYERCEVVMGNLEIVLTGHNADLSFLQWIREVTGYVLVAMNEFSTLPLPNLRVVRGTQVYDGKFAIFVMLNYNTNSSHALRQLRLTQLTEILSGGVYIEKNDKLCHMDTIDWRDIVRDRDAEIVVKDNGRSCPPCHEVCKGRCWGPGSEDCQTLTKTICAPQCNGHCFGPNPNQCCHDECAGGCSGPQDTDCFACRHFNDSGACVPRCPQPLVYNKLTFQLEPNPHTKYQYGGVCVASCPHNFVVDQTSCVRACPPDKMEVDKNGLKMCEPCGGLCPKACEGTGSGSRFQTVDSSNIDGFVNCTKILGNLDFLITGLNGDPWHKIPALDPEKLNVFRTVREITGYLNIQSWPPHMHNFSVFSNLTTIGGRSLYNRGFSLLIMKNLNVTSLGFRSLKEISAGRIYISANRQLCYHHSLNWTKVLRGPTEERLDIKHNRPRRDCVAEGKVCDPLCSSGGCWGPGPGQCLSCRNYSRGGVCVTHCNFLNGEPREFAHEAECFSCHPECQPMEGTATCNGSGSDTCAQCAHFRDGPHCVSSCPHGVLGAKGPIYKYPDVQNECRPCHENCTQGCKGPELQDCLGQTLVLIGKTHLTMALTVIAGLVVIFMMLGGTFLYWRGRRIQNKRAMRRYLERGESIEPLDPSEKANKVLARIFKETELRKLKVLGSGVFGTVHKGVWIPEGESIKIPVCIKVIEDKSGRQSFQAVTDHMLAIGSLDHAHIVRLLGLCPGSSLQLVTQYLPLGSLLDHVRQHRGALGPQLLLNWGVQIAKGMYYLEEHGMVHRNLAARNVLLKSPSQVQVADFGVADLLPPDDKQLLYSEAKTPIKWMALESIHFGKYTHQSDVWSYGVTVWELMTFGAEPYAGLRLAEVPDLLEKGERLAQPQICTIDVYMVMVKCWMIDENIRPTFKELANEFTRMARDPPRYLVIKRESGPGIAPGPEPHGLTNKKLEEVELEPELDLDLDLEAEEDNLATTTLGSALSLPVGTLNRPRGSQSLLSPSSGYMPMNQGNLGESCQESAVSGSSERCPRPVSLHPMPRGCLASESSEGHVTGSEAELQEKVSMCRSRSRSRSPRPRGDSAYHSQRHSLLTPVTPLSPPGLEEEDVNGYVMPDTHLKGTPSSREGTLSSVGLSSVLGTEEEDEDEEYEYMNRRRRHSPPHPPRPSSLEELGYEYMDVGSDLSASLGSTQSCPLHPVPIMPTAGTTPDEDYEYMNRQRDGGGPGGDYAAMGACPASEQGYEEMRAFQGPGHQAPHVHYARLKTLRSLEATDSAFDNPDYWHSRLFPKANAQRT
# Serine/threonine-protein kinase PAK 4 (Homo sapiens), sequence (O96013 whole entry, looked up): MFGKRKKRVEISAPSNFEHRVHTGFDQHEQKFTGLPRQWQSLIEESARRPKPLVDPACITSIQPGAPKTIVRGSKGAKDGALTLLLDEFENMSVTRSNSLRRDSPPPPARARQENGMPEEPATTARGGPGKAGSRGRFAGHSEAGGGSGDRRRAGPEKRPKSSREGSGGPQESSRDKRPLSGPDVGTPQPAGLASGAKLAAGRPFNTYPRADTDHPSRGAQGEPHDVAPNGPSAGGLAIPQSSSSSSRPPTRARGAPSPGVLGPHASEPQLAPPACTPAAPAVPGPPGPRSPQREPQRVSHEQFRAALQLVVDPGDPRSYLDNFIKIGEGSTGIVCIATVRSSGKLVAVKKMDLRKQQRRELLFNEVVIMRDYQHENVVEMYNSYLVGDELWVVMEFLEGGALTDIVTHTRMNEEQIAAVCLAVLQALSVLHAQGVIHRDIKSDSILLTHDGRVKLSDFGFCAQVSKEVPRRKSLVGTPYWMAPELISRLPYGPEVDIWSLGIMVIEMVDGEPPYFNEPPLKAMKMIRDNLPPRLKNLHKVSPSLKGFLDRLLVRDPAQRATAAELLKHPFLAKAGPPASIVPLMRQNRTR
# MAP kinase-interacting serine/threonine-protein kinase 1 (Homo sapiens), sequence (Q9BUB5 whole entry, looked up): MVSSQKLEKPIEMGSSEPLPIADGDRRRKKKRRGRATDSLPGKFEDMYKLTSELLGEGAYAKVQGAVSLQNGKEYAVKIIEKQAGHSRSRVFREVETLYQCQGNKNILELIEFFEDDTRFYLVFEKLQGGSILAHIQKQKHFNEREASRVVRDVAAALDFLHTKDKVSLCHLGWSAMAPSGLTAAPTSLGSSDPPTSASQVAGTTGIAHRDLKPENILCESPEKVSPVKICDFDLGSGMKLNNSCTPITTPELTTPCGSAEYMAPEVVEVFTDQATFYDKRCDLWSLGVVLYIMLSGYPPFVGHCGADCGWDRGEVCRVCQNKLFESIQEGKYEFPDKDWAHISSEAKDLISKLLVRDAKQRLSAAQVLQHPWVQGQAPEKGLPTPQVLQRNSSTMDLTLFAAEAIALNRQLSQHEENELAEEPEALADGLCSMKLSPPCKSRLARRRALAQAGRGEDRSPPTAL
# Myosin light chain kinase 2, skeletal/cardiac muscle (Homo sapiens), sequence (Q9H1R3 whole entry): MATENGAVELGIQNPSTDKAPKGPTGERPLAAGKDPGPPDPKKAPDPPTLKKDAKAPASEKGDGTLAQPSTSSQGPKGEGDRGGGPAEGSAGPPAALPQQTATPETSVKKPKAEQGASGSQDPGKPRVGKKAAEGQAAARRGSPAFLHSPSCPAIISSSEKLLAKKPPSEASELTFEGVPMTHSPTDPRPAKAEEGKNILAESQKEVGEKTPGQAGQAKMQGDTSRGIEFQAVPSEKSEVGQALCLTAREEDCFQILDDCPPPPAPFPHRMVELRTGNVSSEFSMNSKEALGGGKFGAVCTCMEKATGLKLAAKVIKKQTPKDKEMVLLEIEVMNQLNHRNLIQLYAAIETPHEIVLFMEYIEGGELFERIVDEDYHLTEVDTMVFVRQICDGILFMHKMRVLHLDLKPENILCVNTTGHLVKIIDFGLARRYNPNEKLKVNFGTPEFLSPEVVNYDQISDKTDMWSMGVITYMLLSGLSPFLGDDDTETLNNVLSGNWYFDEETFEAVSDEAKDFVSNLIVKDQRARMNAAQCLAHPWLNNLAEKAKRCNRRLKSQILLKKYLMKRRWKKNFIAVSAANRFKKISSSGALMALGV
structure (smiles),measurement,setting,value
COc1cc2ncnc(N[C@H](C)c3cccc4ccccc34)c2cc1OC,Activity,[1],96%
same,Activity,[2],89%
same,Activity,[3],89%
same,Activity,[4],83%
same,Activity,[5],88%
same,Activity,[6],92%
same,Activity,[7],82%
same,Activity,[8],93%
same,Activity,[9],61%
same,Activity,[10],90%
same,Activity,[11],87%
same,Activity,[12],100%
same,Activity,[13],91%
same,Activity,[14],100%
